The results in this text go back to a melting point compilation (Tetko et al.).

Consider `CCOc1ccc(-c2nc(CO)cs2)cc1`, for which the melting point (commonly the temperature of the solid-liquid transition) is 107 to 109 °C.

Take `CC(C)(C)CNc1ccc(C(N)=O)c(Cl)c1`: the melting point lay within 138 to 140 °C. In the case of `O=C(O)c1cc(NCc2ccccc2)ccn1` it was 274 to 276 °C; in that of `CCc1ccc(N)c(C(=O)O)c1`, 127 to 129 °C; in that of `COC(=O)CN1Cc2ccccc2C1=O`, 114 to 116 °C. In the case of `O=C(CCl)c1ccc2c(c1)CCCC2` it was 62 to 64 °C.

On to `CN1CC(=O)N(c2cccc(N)c2)C1=O`, for which the melting point lay within 131 to 133 °C.

`CC(C)(Oc1ccc(F)cc1)C(=O)O` displayed a melting point of 68 to 70 °C. The compound `O=C(O)CSc1nc2cc(-c3ccccc3)sc2c(=O)n1Cc1ccccc1` came in with a melting point of 320 to 322 °C. `Nc1cc(-c2cc(Cl)cc(Cl)c2)no1` displayed a melting point of 132 to 134 °C. In the case of `Clc1ccc(Cl)c(OCC2CO2)c1` (stereo not drawn) it was 62 to 64 °C. The result for `NC(=O)CCNc1cc(Cl)ncn1` reads 165 to 167 °C; that for `Nc1nnc(-c2ccc(Cl)cc2Cl)[nH]1`, 228 to 230 °C.

On to `Cc1cc(N)ncn1`, for which the melting point was in the range of 186 to 188 °C. Regarding `OCCSc1ccnc2cc(Cl)ccc12`, the melting point lay within 111 to 113 °C. In the case of `Cc1cc(C=O)nc(N2CCCCC2)n1` it was 49 to 51 °C.

Compound `CCOc1nc(Cl)ncc1Br` yielded a melting point of 72 to 74 °C. In the case of `O=C(O)C1CCN(S(=O)(=O)c2ccc3c(c2)OCCCO3)CC1` it was 173 to 178 °C; in that of `CC1(C)NC(=O)N(c2cccc(C#N)c2)C1=O`, 159 to 161 °C. The result for `CCC(=O)NNC(=O)C(C)Cl` (stereo not drawn) reads 157 to 159 °C; that for `Cc1cc(Cn2cc(Br)cn2)oc1C(=O)O`, 122 to 124 °C; that for `ClCc1ccc(-n2cccn2)cc1`, 57 to 59 °C. The result for `N#Cc1cc(C(=O)O)c[nH]1` reads 229 to 231 °C. As to `O=C(O)CN1C(=O)CCCc2ccccc21`, the melting point fell in the range of 141 to 143 °C. In the case of `Cc1ccc(-c2ccc(O)cc2)cc1` it was 155 to 157 °C; in that of `c1cc(-c2nnco2)ccn1`, 119 to 121 °C; in that of `CCS(=O)(=O)c1cccc(F)c1N`, 91 to 93 °C. In the case of `CC(C)Cn1c(=O)n(C)c(=O)c2cc(C(=O)O)cnc21` it was 219 to 221 °C. In the case of `O=S1(=O)CCC(Nc2ccccc2)C1` (stereo not drawn) it was 119 to 123 °C; in that of `NC(=S)c1cccnc1N`, 124 to 126 °C.

As for `O=C(O)c1ccc2ncoc2c1`, the melting point lay within 242 to 244 °C. The result for `CC(CC#N)Sc1ccccc1NC(=O)CCl` (stereo not drawn) reads 89 to 91 °C; that for `Cc1nnc2cc(Cl)ncn12`, 122 to 124 °C. In the case of `CC1CCCCC1N1C(=O)C=CC1=O` (stereo not drawn) it was 40 to 42 °C; in that of `COc1ccc(CCl)cc1C#N`, 99 to 101 °C.

As for `O=C(O)c1ccc(-c2nnco2)cc1`, the melting point was 261 to 263 °C.

The compound `CC(C)Nc1ncccc1C(=O)O` came in with a melting point of 169 to 171 °C. In the case of `NC(=O)C1Cc2cc(S(N)(=O)=O)ccc2O1` (stereo not drawn) it was 223 to 225 °C; in that of `O=C(O)CC12CC3CC(C1)CC(C(F)(F)F)(C3)C2`, 121 to 123 °C.

On to `COc1ccc(NS(=O)(=O)c2ccc(O)c(N)c2)cc1`, for which the melting point was 213 to 215 °C. The result for `Nc1ncc(Cc2ccc(F)c(F)c2F)s1` reads 105 to 107 °C; that for `CC(C)(C)c1noc(N)n1`, 192 to 194 °C; that for `CCOC(=O)Nc1ccc(N)cc1`, 73 to 75 °C. In the case of `CCOC(=O)c1cnn(-c2nccs2)c1N` it was 104 to 106 °C; in that of `CNC(=O)NC1(C(=O)O)CCCC1`, 165 to 167 °C.

In turn, `O=C(O)c1cc(/C=C/c2ccc(C(F)(F)F)cc2)nc2ccc(Br)cc12` showed a melting point of 316 to 318 °C. `O=C(CCl)NCC1CCSCC1` returned a melting point of 83 to 85 °C. The result for `O=C(O)C1CCN(C(=O)c2ccoc2)CC1` reads 103 to 105 °C; that for `COc1c(F)ccc(F)c1C(=O)O`, 82 to 84 °C; that for `CSC(C(=O)O)c1ccccc1` (stereo not drawn), 75 to 77 °C. In the case of `COc1cccc(C(N)=NO)c1` it was 103 to 105 °C; in that of `CCOc1ccc(C(=O)O)cc1C`, 198 to 200 °C; in that of `COc1ccccc1Cn1cnc2cc(C)c(C)cc21`, 126 to 128 °C. In the case of `CCOc1ccc(NC(=S)NN)cc1` it was 178 to 182 °C; in that of `O=C1c2ccccc2S(=O)(=O)N1CCBr`, 94 to 96 °C. Take `O=C(O)C(Oc1ccc(Br)cc1F)c1ccccc1` (stereo not drawn): the melting point fell in the range of 104 to 106 °C. The result for `O=C(O)c1cc(S(=O)(=O)Cl)c(F)cc1Cl` reads 144 to 146 °C. In the case of `CC(C)(C)c1nn(-c2ccccc2Cl)cc1C=O` it was 111 to 113 °C. In the case of `CCn1c(CCl)nc2cc(S(=O)(=O)N3CCCCC3)ccc21` it was 234 to 236 °C; in that of `CC(=O)c1ccn(S(=O)(=O)c2ccc(C)cc2)c1`, 83 to 85 °C; in that of `NS(=O)(=O)c1ccc(Cl)cc1F`, 104 to 106 °C. On to `COc1ccccc1-c1ccc(C(C)=O)cc1`, for which the melting point fell in the range of 107 to 109 °C. As to `Nc1ccc(S(=O)(=O)NC2CCC(O)CC2)cc1` (stereo not drawn), the melting point was in the range of 154 to 156 °C. In the case of `CNCC(=O)N(C)c1ccccn1` it was 108 to 110 °C; in that of `NS(=O)(=O)Cc1cc(Cl)ccc1F`, 186 to 188 °C. In the case of `O=[N+]([O-])c1ccc(O)c(Br)c1` it was 111 to 113 °C. In the case of `CC(=O)NCc1ccc(C(=O)O)o1` it was 171 to 173 °C. Compound `O=C(O)c1c[nH]nc1-c1ccccc1Cl` had a melting point of 255 to 257 °C. Turning to `O=C(O)COc1ccccc1-c1ccccc1`, the melting point lay within 102 to 104 °C. The result for `CSc1ccc(C#N)c(Cl)c1` reads 117 to 119 °C; that for `CCOc1ccc(NS(=O)(=O)c2ccc(C)c(N)c2)cc1`, 116 to 118 °C. `Oc1ccc(-c2noc(-c3cccc(Br)c3)n2)cc1` registered a melting point of 222 to 224 °C. In the case of `Cc1ccc(NC(N)=S)cc1F` it was 148 to 150 °C; in that of `CCCC(CN)C(=O)O` (stereo not drawn), 219 to 221 °C; in that of `O=C(O)c1ccc(OCC(F)F)nc1`, 158 to 160 °C. `CNC(=O)OCC(F)(F)F` came in with a melting point of 35 to 37 °C. On to `CCC(C(=O)O)N1CCCC1=O` (stereo not drawn), for which the melting point lay within 156 to 158 °C. The result for `CC(Oc1ccc2c(c1)CCC2)C(=O)O` (stereo not drawn) reads 103 to 105 °C.

Turning to `Oc1ccc2oc3c(c2c1)CCCC3`, the melting point lay in the range of 103 to 105 °C.

`CC(C)Cn1c(S)nc2scc(-c3cccs3)c2c1=O` displayed a melting point of 236 to 238 °C. The result for `CSc1nn(C)c(N)c1C(N)=O` reads 173 to 175 °C; that for `COc1ccc(C(=O)CCl)c(OC)c1`, 48 to 50 °C; that for `Cc1c(C(=O)O)nnn1-c1ccc2c(c1)OCCO2`, 189 to 191 °C. The result for `COc1ccc(Cl)c(S(N)(=O)=O)c1` reads 129 to 131 °C. In the case of `O=C(O)c1ccc([N+](=O)[O-])c2cccnc12` it was 204 to 206 °C. In turn, `CC(C)NC(=O)Nc1ccc(CN)cc1` had a melting point of 133 to 135 °C. `Sc1nc(-c2ccccc2)c[nH]1` returned a melting point of 262 to 264 °C. In the case of `CN(CC(=O)N1CCOCC1)C(=O)CCl` it was 75 to 77 °C.
